Where “and” joins values, the source holds several entries; their conditions need not be identical. Equal values may be shown once. Toxic doses and inconclusive results are not listed. The calls were made as follows: active = survival T/C of 150% or more; inactive = T/C below 125% in these data.
Tested on: BDF1 mice, L1210 terephthalanilide-resistant leukemia ip, survival T/C
Assay: NCI In Vivo Anticancer Drug Screen. Data for tumor model L1210 Leukemia resistant to A Terephthalanilide; NSC 38280 (intraperitoneal) in B6D2F1 (BDF1) mice
Details: endpoint: mean survival time, higher = longer survival
Description: The antitumor activity of compounds was measured in mice bearing transplantable tumors. Survival or tumor size were measured and the results are expressed as the measurement made in the treated group (T) divided by the measurement made in the vehicle treated control group (C). The tumor model used in this assay is L1210 Leukemia resistant to A Terephthalanilide; NSC 38280 (intraperitoneal) in B6D2F1 (BDF1) mice

[1] = dose: 1.0 mg/kg/injection, schedule: Q01DX Z (ip), vehicle: carboxymethylcellulose (CMC)
[2] = dose: 5.0 mg/kg/injection, schedule: Q01DX010 (ip), vehicle: saline
[3] = dose: 2.5 mg/kg/injection, schedule: Q01DX010 (ip), vehicle: saline
[4] = dose: 5.0 mg/kg/injection, schedule: Q01DX Z (ip), vehicle: carboxymethylcellulose (CMC)
[5] = dose: 10.0 mg/kg/injection, schedule: Q01DX010 (ip), vehicle: saline
[6] = dose: 20.0 mg/kg/injection, schedule: Q01DX010 (ip), vehicle: saline
[7] = dose: 20.0 mg/kg/injection, schedule: Q01DX Z (ip), vehicle: carboxymethylcellulose (CMC)
[8] = dose: 200.0 mg/kg/injection, schedule: Q01DX010 (ip), vehicle: saline
[9] = dose: 16.0 mg/kg/injection, schedule: Q01DX010 (ip), vehicle: saline
[10] = dose: 25.0 mg/kg/injection, schedule: Q01DX Z (ip), vehicle: carboxymethylcellulose (CMC)
[11] = dose: 100.0 mg/kg/injection, schedule: Q01DX Z (ip), vehicle: carboxymethylcellulose (CMC)
[12] = dose: 62.5 mg/kg/injection, schedule: Q01DX Z (ip), vehicle: carboxymethylcellulose (CMC)
[13] = dose: 2.5 mg/kg/injection, schedule: Q01DX Z (ip), vehicle: carboxymethylcellulose (CMC)
[14] = dose: 10.0 mg/kg/injection, schedule: Q01DX Z (ip), vehicle: carboxymethylcellulose (CMC)

Measured: T/C

Oc1cc(CN(CCCl)CCCl)c(O)cc1CN(CCCl)CCCl
active: dose: 6.0 mg/kg/injection, schedule: Q01DX Z (ip), vehicle: carboxymethylcellulose (CMC) 150 % of control
inactive: dose: 0.63 mg/kg/injection, schedule: Q01DX010 (ip), vehicle: saline 116 % of control and 120 % of control | [1] 121 % of control | [2] 108 % of control and 113 % of control

S=P(N1CCOCC1)(N1CC1)N1CC1
active: [7] 159 % of control
inactive: dose: 1.87 mg/kg/injection, schedule: Q01DX Z (ip), vehicle: carboxymethylcellulose (CMC) 98 % of control and 111 % of control | [3] 92 % of control and 101 % of control | dose: 3.75 mg/kg/injection, schedule: Q01DX Z (ip), vehicle: carboxymethylcellulose (CMC) 107 % of control and 115 % of control | [2] 97 % of control and 102 % of control | [4] 98 % of control and 114 % of control | [5] 99 % of control and 100 % of control | [6] 101 % of control | dose: 40.0 mg/kg/injection, schedule: Q01DX Z (ip), vehicle: carboxymethylcellulose (CMC) 104 % of control

O=C(Nc1ccc(C2=NCCN2)cc1)c1ccc(C(=O)Nc2ccc(C3=NCCN3)cc2)c(Cl)c1
inactive: dose: 2.0 mg/kg/injection, schedule: Q01DX010 (ip), vehicle: other 98 % of control and 100 % of control | dose: 4.0 mg/kg/injection, schedule: Q01DX010 (ip), vehicle: other 107 % of control and 110 % of control | dose: 8.0 mg/kg/injection, schedule: Q01DX010 (ip), vehicle: other 107 % of control and 117 % of control | dose: 16.0 mg/kg/injection, schedule: Q01DX010 (ip), vehicle: other 122 % of control and 107 % of control | dose: 32.0 mg/kg/injection, schedule: Q01DX010 (ip), vehicle: other 120 % of control and 112 % of control

CN(C)CC(=O)c1ccc(O)c(O)c1
inactive: dose: 134.0 mg/kg/injection, schedule: Q01DX010 (ip), vehicle: saline 104 % of control | dose: 135.0 mg/kg/injection, schedule: Q01DX010 (ip), vehicle: saline 114 % of control | [8] 104 % of control and 105 % of control | dose: 300.0 mg/kg/injection, schedule: Q01DX010 (ip), vehicle: saline 120 % of control and 97 % of control | dose: 450.0 mg/kg/injection, schedule: Q01DX010 (ip), vehicle: saline 121 % of control and 110 % of control

C=CC(CN1CC1)OC(C)=O (configuration not stated)
inactive: dose: 2.0 mg/kg/injection, schedule: Q01DX010 (ip), vehicle: saline 101 % of control | dose: 4.0 mg/kg/injection, schedule: Q01DX010 (ip), vehicle: saline 119 % of control | [9] 114 % of control

CN=C(NC)c1ccc(NC(=O)Nc2ccc(NC(=O)Nc3ccc(C(=NC)NC)cc3)cc2)cc1
inactive: dose: 13.3 mg/kg/injection, schedule: Q01DX010 (ip), vehicle: saline 101 % of control | [6] 101 % of control

CS(=O)(=O)OCC(O)C(O)COS(C)(=O)=O (configuration not stated)
inactive: [10] 107 % of control | dose: 50.0 mg/kg/injection, schedule: Q01DX Z (ip), vehicle: carboxymethylcellulose (CMC) 103 % of control | [11] 103 % of control | [8] 101 % of control | dose: 200.0 mg/kg/injection, schedule: Q01DX Z (ip), vehicle: carboxymethylcellulose (CMC) 101 % of control | dose: 250.0 mg/kg/injection, schedule: Q01DX Z (ip), vehicle: carboxymethylcellulose (CMC) 100 % of control | dose: 375.0 mg/kg/injection, schedule: Q01DX Z (ip), vehicle: carboxymethylcellulose (CMC) 111 % of control | dose: 400.0 mg/kg/injection, schedule: Q01DX010 (ip), vehicle: saline 97 % of control | dose: 800.0 mg/kg/injection, schedule: Q01DX010 (ip), vehicle: saline 91 % of control

O=c1[nH]c(=O)n(C2CC(O)C(CO)O2)cc1Br (configuration not stated)
inactive: [12] 110 % of control | dose: 500.0 mg/kg/injection, schedule: Q01DX Z (ip), vehicle: carboxymethylcellulose (CMC) 119 % of control

Nc1nc(=S)c2[nH]cnc2[nH]1
active: dose: 0.5 mg/kg/injection, schedule: Q01DX Z (ip), vehicle: carboxymethylcellulose (CMC) 165 % of control | [1] 158 % of control | dose: 1.25 mg/kg/injection, schedule: Q01DX010 (ip), vehicle: saline 156 % of control | [3] 173 % of control | [13] 159 % of control
inactive: [2] 108 % of control and 113 % of control | [4] 109 % of control | [5] 90 % of control and 98 % of control | [14] 96 % of control and 116 % of control | dose: 15.0 mg/kg/injection, schedule: Q01DX Z (ip), vehicle: carboxymethylcellulose (CMC) 106 % of control | [7] 96 % of control and 101 % of control | dose: 31.0 micrograms/kg/injection, schedule: Q01DX Z (ip), vehicle: carboxymethylcellulose (CMC) 107 % of control | dose: 125.0 micrograms/kg/injection, schedule: Q01DX Z (ip), vehicle: carboxymethylcellulose (CMC) 110 % of control

CN(C)c1nc(N(C)C)nc(N(C)C)n1
inactive: dose: 18.8 mg/kg/injection, schedule: Q01DX010 (ip), vehicle: saline 94 % of control and 95 % of control | dose: 37.5 mg/kg/injection, schedule: Q01DX010 (ip), vehicle: saline 94 % of control and 100 % of control | dose: 75.0 mg/kg/injection, schedule: Q01DX010 (ip), vehicle: saline 94 % of control and 99 % of control | dose: 87.5 mg/kg/injection, schedule: Q01DX Z (ip), vehicle: other 110 % of control | dose: 150.0 mg/kg/injection, schedule: Q01DX010 (ip), vehicle: saline 96 % of control and 99 % of control | dose: 175.0 mg/kg/injection, schedule: Q01DX Z (ip), vehicle: other 119 % of control

CS(=O)(=O)OCCCCOS(C)(=O)=O
inactive: dose: 6.25 mg/kg/injection, schedule: Q01DX010 (ip), vehicle: saline 98 % of control and 103 % of control | dose: 12.5 mg/kg/injection, schedule: Q01DX010 (ip), vehicle: saline 100 % of control and 102 % of control | dose: 25.0 mg/kg/injection, schedule: Q01DX010 (ip), vehicle: saline 93 % of control and 102 % of control | dose: 50.0 mg/kg/injection, schedule: Q01DX010 (ip), vehicle: saline 98 % of control and 100 % of control

CN(C)c1ccc(Nc2c3ccccc3nc3ccccc23)cc1
inactive: dose: 36.0 mg/kg/injection, schedule: Q01DX010 (ip), vehicle: saline 108 % of control | dose: 54.0 mg/kg/injection, schedule: Q01DX010 (ip), vehicle: saline 102 % of control and 111 % of control | dose: 80.0 mg/kg/injection, schedule: Q01DX010 (ip), vehicle: saline 97 % of control and 109 % of control | dose: 120.0 mg/kg/injection, schedule: Q01DX010 (ip), vehicle: saline 119 % of control

S=c1nc[nH]c2nc[nH]c12
inactive: [13] 120 % of control | [12] 120 % of control | [11] 107 % of control
active: dose: 7.5 mg/kg/injection, schedule: Q01DX Z (ip), vehicle: carboxymethylcellulose (CMC) 165 % of control | [14] 172 % of control | dose: 12.5 mg/kg/injection, schedule: Q01DX Z (ip), vehicle: carboxymethylcellulose (CMC) 156 % of control | [10] 152 % of control

Nc1nc(N)c2nc(CNc3ccc(C(=O)NC(CCC(=O)O)C(=O)O)cc3)cnc2n1 (configuration not stated)
inactive: dose: 0.03 mg/kg/injection, schedule: Q01DX010 (ip), vehicle: other 99 % of control and 109 % of control | dose: 0.05 mg/kg/injection, schedule: Q01DX010 (ip), vehicle: other 123 % of control and 101 % of control | dose: 0.1 mg/kg/injection, schedule: Q01DX010 (ip), vehicle: other 122 % of control and 124 % of control

CCCCNc1ncnc2c1cnn2C
inactive: dose: 31.3 mg/kg/injection, schedule: Q01DX010 (ip), vehicle: saline 100 % of control | dose: 62.5 mg/kg/injection, schedule: Q01DX010 (ip), vehicle: saline 105 % of control and 108 % of control | dose: 125.0 mg/kg/injection, schedule: Q01DX010 (ip), vehicle: saline 89 % of control

O=C(Nc1ccc(C2=NCCN2)cc1)c1cccc(C(=O)Nc2ccc(C3=NCCN3)cc2)c1
inactive: dose: 8.0 mg/kg/injection, schedule: Q01DX010 (ip), vehicle: saline 94 % of control and 101 % of control | [9] 105 % of control and 110 % of control | dose: 32.0 mg/kg/injection, schedule: Q01DX010 (ip), vehicle: saline 106 % of control and 110 % of control | dose: 64.0 mg/kg/injection, schedule: Q01DX010 (ip), vehicle: saline 120 % of control

O=C(Nc1ccc(C(=O)Nc2ccc(C3=NCCCN3)cc2)cc1)Nc1ccc(C2=NCCCN2)cc1
inactive: dose: 1.88 mg/kg/injection, schedule: Q01DX010 (ip), vehicle: saline 93 % of control and 108 % of control | dose: 3.75 mg/kg/injection, schedule: Q01DX010 (ip), vehicle: saline 95 % of control and 114 % of control | dose: 7.5 mg/kg/injection, schedule: Q01DX010 (ip), vehicle: saline 122 % of control and 119 % of control | dose: 15.0 mg/kg/injection, schedule: Q01DX010 (ip), vehicle: saline 117 % of control

— PubChem BioAssay AID282 (DTP/NCI, 2004)
